Data from patent publication US11739111B2, “Manufacture of trans-[tetrachlorobis(1H-indazole)ruthenate (III)] and compositions thereof” (Bold Therapeutics, Inc., priority 2017, dated 2023).
Where “and” joins values, the source holds several entries; their conditions need not be identical. Identical values can stand only once.

Columns and labels:
Assay type in all cases: physicochemical
[1] = Stability of the isolated cesium intermediate as dry powder; details: ambient conditions
Excerpt: Another aspect of the invention is the introduction of step S-2 into the preparation of Formula I-b. Step S-2 involves the preparation of a cesium intermediate, Formula I-a. […] As stated above, indazolium trans-[tetrachlorobis(1H-indazole)ruthenate (III)] is isolated by filtration as what can best be described as a mud-like substance. The stability of this compound is improved by the presence of hydrochloric acid (chloride ions). Washing the filtrate with polar solvents (e.g. methanol) also lead to degradation. Therefore, the best practice is to prepare the indazolium trans-[tetrachlorobis(1H-indazole)ruthenate (III)], isolate by filtration, and use directly for S-2 without delay. S-2 consists of mixing indazolium trans-[tetrachlorobis(1H-indazole)ruthenate (III)] and cesium chloride in a suitable solvent. Suitable solvents can be alcohol with 1 to 5 carbon atoms, a diol with 2-4 carbon atoms, water, ketones with […], cyclic ethers containing 4 to 7 carbon atoms, amides with 1 to 4 carbon atoms, DMSO, sulfolane, esters with 4 to 6 carbon atoms, chlorinated hydrocarbons with 1 or 2 carbon atoms, liquid aromatic hydrocarbons, nitriles with 2-6 carbon atoms, or mixture of thereof.

[2] = Solution stability study of IT-139 bulk solution (HPLC peak area over time); details: for % Peak Area Unspecified: impurities; for % Peak Area RRT 1.09 / % Peak Area RRT 1.28: impurity
Procedure: HPLC Method 1 Assay and identity of sodium trans-[tetrachlorobis(1H-indazole) ruthenate (III)] was determined by high pressure liquid chromatography with UV detection at 292 nm. IT-139 drug product was dissolved in water at concentration of 1 mg/mL, and 10 μL was injected onto an Agilent Zorbax SB-C18 (3 μm, 4.6×150 mm) HPLC column. Mobile phase A consisted of 0.1% trifluoroacetic acid in water and mobile phase B consisted of 0.1% trifluoroacetic acid in acetonitrile. Separation was achieved by gradient flow at 1.0 mL/minute such that mobile phase A constituting from 90% to 10% from time zero to 12 minutes, with mobile phase B constituting from 10% to 90% over 12 minutes. The gradient was then reversed from 10% mobile phase A and 90% mobile phase B to 90% A and 10% B from 12 minutes to 13 minutes. This continued until the end of the run at 15 minutes. The analyte retention time was 7.7 minutes. Sample temperature was maintained at 5° C., and column temperature was maintained at 25° C.
HPLC Method 2 Two HPLC methods are used because two different impurities co-elute using HPLC Method 1. Related substances for IT-139 drug product were determined by high pressure liquid chromatography with UV detection at 292 nm. IT-139 drug product was dissolved in water at concentration of 1 mg/mL, and 10 μL was injected onto an Agilent Zorbax SB-C18 (3 μm, 4.6×150 mm) HPLC column. Mobile phase A consisted of 0.1% trifluoroacetic acid in water and mobile phase B consisted of 0.1% trifluoroacetic acid in acetonitrile. Separation was achieved by gradient flow at 1.0 mL/minute such that mobile phase A constituted from 90% to 10% from time zero to 15 minutes, with mobile phase B constituted from 10% to 90% over 15 minutes. The gradient was held at 10% A and 90% B from 15 minutes to 19.9 minutes. The gradient was then reversed to 90% A and 10% B from 19.9 minutes to 20 minutes, and was held until the end of the run at 26 minutes. Sample temperature was maintained at 5° C., and column temperature was maintained at 25° C.
Compound from Example 5 was prepared at room temperature (20° C.) using room temperature solutions, and refrigerated (2-8° C.) using cold (2-8° C.) solutions, for a total volume of 500 mL for each. Citric acid solution was prepared by dissolving 19.2 grams of citric acid in 1 L of water. Sodium citrate solution was prepared by dissolving 29.4 grams of sodium citrate in 1 L of water. Sodium citrate solution was added to the citric acid solution until the pH was increased from 2.0 to 3.4. Mannitol solution was prepared by dissolving 13.3 g in 200 mL of water. Solutions of Formula I-b were prepared by adding 16.6 mL of citrate buffer to 400 mL water. 3.33 g sodium trans[tetrachlorobis(1H-indazole)ruthenate(III)] was added to the solution and stirred for 10 minutes. 50 mL of mannitol solution was added followed by 33.4 mL of water for a final volume of 500 mL IT-139 bulk solution. The room temperature (18-22° C.) sample was stirred using a magnetic stir plate on the laboratory bench, and the refrigerated sample was stirred using a magnetic stir plate in a refrigerator (2-8° C.). Aliquots of 100 μL were taken from each sample immediately upon dissolution (T=0) and at time points of 0.5, 1, 2, 3, 4, 5, 6, 18, 24, 32, and 48 hours. Each sample was added to 1.9 mL methanol in an HPLC vial and mixed by vortex. […] HPLC chromatograms for IT-139 samples stored refrigerated or at room temperature at the 18 hour time point are shown in FIG. 2 and FIG. 3, respectively.

[3] = Stability of Formula I-b in chloride-containing solutions versus pure water (aquation to Compound A); details: sodium chloride or hydrochloric acid solutions compared with pure water
[4] = 20° C. (room temperature), 0.5 h
[5] = 20° C. (room temperature), 18 h

[Cl][Ru-3]([Cl])([Cl])([Cl])([n+]1cc2ccccc2[nH]1)[n+]1cc2ccccc2[nH]1.[Cs+] [Formula I-a, cesium trans-[tetrachlorobis(1H-indazole)ruthenate (III)]]
stability of the dry powder [1]: stable at ambient conditions

[Cl][Ru-]([Cl])([Cl])[Cl].[Na+].c1ccc2[nH]ncc2c1.c1ccc2[nH]ncc2c1 [Formula I-b, sodium trans-[tetrachlorobis(1H-indazole)ruthenate (III)]]
% Peak Area RT 7.7 min ([2]; 4° C. (refrigerated), 0 h): 97.05% and 97.1%
% Peak Area RT 7.7 min ([2]; 4° C. (refrigerated), 0.5 h): 97.3%
% Peak Area RT 7.7 min ([2]; 4° C. (refrigerated), 1 h): 97.0%
% Peak Area RT 7.7 min ([2]; 4° C. (refrigerated), 2 h): 97.0%
% Peak Area RT 7.7 min ([2]; 4° C. (refrigerated), 3 h): 96.8%
% Peak Area RT 7.7 min ([2]; 4° C. (refrigerated), 4 h): 96.5%
% Peak Area RT 7.7 min ([2]; 4° C. (refrigerated), 5 h): 96.6%
% Peak Area RT 7.7 min ([2]; 4° C. (refrigerated), 6 h): 96.8%
% Peak Area RT 7.7 min ([2]; 4° C. (refrigerated), 18 h): 95.4%
% Peak Area RT 7.7 min ([2]; 4° C. (refrigerated), 24 h): 94.8%
% Peak Area RT 7.7 min ([2]; 4° C. (refrigerated), 32 h): 94.9%
% Peak Area RT 7.7 min ([2]; 4° C. (refrigerated), 48 h): 89.8%
% Peak Area RT 7.7 min ([2]; 20° C. (room temperature), 0 h): 96.8%
% Peak Area RT 7.7 min [2, 4]: 96.8%
% Peak Area RT 7.7 min ([2]; 20° C. (room temperature), 1 h): 96.5%
% Peak Area RT 7.7 min ([2]; 20° C. (room temperature), 2 h): 96.3%
% Peak Area RT 7.7 min ([2]; 20° C. (room temperature), 3 h): 95.9%
% Peak Area RT 7.7 min ([2]; 20° C. (room temperature), 4 h): 95.4%
% Peak Area RT 7.7 min ([2]; 20° C. (room temperature), 5 h): 94.9%
% Peak Area RT 7.7 min ([2]; 20° C. (room temperature), 6 h): 94.0%
% Peak Area RT 7.7 min [2, 5]: 12.1%
% Peak Area Unspecified ([2]; 4° C. (refrigerated), 0 h): <0.1%
% Peak Area Unspecified ([2]; 4° C. (refrigerated), 0.5 h): <0.1%
% Peak Area Unspecified ([2]; 4° C. (refrigerated), 1 h): <0.1%
% Peak Area Unspecified ([2]; 4° C. (refrigerated), 2 h): 0.14%
% Peak Area Unspecified ([2]; 4° C. (refrigerated), 3 h): 0.16%
% Peak Area Unspecified ([2]; 4° C. (refrigerated), 4 h): 0.26%
% Peak Area Unspecified ([2]; 4° C. (refrigerated), 5 h): <0.1%
% Peak Area Unspecified ([2]; 4° C. (refrigerated), 6 h): <0.1%
% Peak Area Unspecified ([2]; 4° C. (refrigerated), 18 h): 0.11%
% Peak Area Unspecified ([2]; 4° C. (refrigerated), 24 h): <0.1%
% Peak Area Unspecified ([2]; 4° C. (refrigerated), 32 h): <0.1%
% Peak Area Unspecified ([2]; 4° C. (refrigerated), 48 h): <0.1%
% Peak Area Unspecified ([2]; 20° C. (room temperature), 0 h): <0.1%
% Peak Area Unspecified [2, 4]: <0.1%
% Peak Area Unspecified ([2]; 20° C. (room temperature), 1 h): <0.1%
% Peak Area Unspecified ([2]; 20° C. (room temperature), 2 h): 0.13%
% Peak Area Unspecified ([2]; 20° C. (room temperature), 3 h): 0.16%
% Peak Area Unspecified ([2]; 20° C. (room temperature), 4 h): 0.25%
% Peak Area Unspecified ([2]; 20° C. (room temperature), 5 h): 0.26%
% Peak Area Unspecified ([2]; 20° C. (room temperature), 6 h): 0.13%
% Peak Area Unspecified [2, 5]: 1.82%
% Peak Area RRT 1.09 ([2]; 4° C. (refrigerated), 0 h): 0.96%
% Peak Area RRT 1.28 ([2]; 4° C. (refrigerated), 0 h): 1.91%
% Peak Area RRT 1.09 ([2]; 4° C. (refrigerated), 0.5 h): 0.96%
% Peak Area RRT 1.28 ([2]; 4° C. (refrigerated), 0.5 h): 1.7%
% Peak Area RRT 1.09 ([2]; 4° C. (refrigerated), 1 h): 1.03%
% Peak Area RRT 1.28 ([2]; 4° C. (refrigerated), 1 h): 1.9%
% Peak Area RRT 1.09 ([2]; 4° C. (refrigerated), 2 h): 1.04%
% Peak Area RRT 1.28 ([2]; 4° C. (refrigerated), 2 h): 1.86%
% Peak Area RRT 1.09 ([2]; 4° C. (refrigerated), 3 h): 1.07%
% Peak Area RRT 1.28 ([2]; 4° C. (refrigerated), 3 h): 0.94%
% Peak Area RRT 1.09 ([2]; 4° C. (refrigerated), 4 h): 1.13%
% Peak Area RRT 1.28 ([2]; 4° C. (refrigerated), 4 h): 2.14%
% Peak Area RRT 1.09 ([2]; 4° C. (refrigerated), 5 h): 1.11%
% Peak Area RRT 1.28 ([2]; 4° C. (refrigerated), 5 h): 2.2%
% Peak Area RRT 1.09 ([2]; 4° C. (refrigerated), 6 h): 1.09%
% Peak Area RRT 1.28 ([2]; 4° C. (refrigerated), 6 h): 2.07%
% Peak Area RRT 1.09 ([2]; 4° C. (refrigerated), 18 h): 1.45%
% Peak Area RRT 1.28 ([2]; 4° C. (refrigerated), 18 h): 3.07%
% Peak Area RRT 1.09 ([2]; 4° C. (refrigerated), 24 h): 1.34%
% Peak Area RRT 1.28 ([2]; 4° C. (refrigerated), 24 h): 3.76%
% Peak Area RRT 1.09 ([2]; 4° C. (refrigerated), 32 h): 1.33%
% Peak Area RRT 1.28 ([2]; 4° C. (refrigerated), 32 h): 3.65%
% Peak Area RRT 1.09 ([2]; 4° C. (refrigerated), 48 h): 2.39%
% Peak Area RRT 1.28 ([2]; 4° C. (refrigerated), 48 h): 7.56%
% Peak Area RRT 1.09 ([2]; 20° C. (room temperature), 0 h): 0.88%
% Peak Area RRT 1.28 ([2]; 20° C. (room temperature), 0 h): 2.26%
% Peak Area RRT 1.09 [2, 4]: 1.08%
% Peak Area RRT 1.28 [2, 4]: 2.07%
% Peak Area RRT 1.09 ([2]; 20° C. (room temperature), 1 h): 1.14%
% Peak Area RRT 1.28 ([2]; 20° C. (room temperature), 1 h): 2.28%
% Peak Area RRT 1.09 ([2]; 20° C. (room temperature), 2 h): 1.22%
% Peak Area RRT 1.28 ([2]; 20° C. (room temperature), 2 h): 2.34%
% Peak Area RRT 1.09 ([2]; 20° C. (room temperature), 3 h): 1.35%
% Peak Area RRT 1.28 ([2]; 20° C. (room temperature), 3 h): 2.55%
% Peak Area RRT 1.09 ([2]; 20° C. (room temperature), 4 h): 1.47%
% Peak Area RRT 1.28 ([2]; 20° C. (room temperature), 4 h): 2.89%
% Peak Area RRT 1.09 ([2]; 20° C. (room temperature), 5 h): 1.58%
% Peak Area RRT 1.28 ([2]; 20° C. (room temperature), 5 h): 3.27%
% Peak Area RRT 1.09 ([2]; 20° C. (room temperature), 6 h): 1.88%
% Peak Area RRT 1.28 ([2]; 20° C. (room temperature), 6 h): 4%
% Peak Area RRT 1.09 [2, 5]: 25.2%
% Peak Area RRT 1.28 [2, 5]: 60.87%
stability in solution [3]: much more stable
